Data taken from PMC4165461 (Analytical Chemistry, 2014).
*1 amine or outer side, *2 acyl side, *3 side chain or, on linkers, in order; H or OH if unused. Where a SMILES comes first, the peptide text is derived from it. CO = O=C([*:1])[*:2]

Each compound was assayed on CC(C)[C@H](NC(=O)[C@H](Cc1ccccc1)NC(=O)CNC(=O)[C@H](Cc1ccccc1)NC(=O)CN)C(=O)NCC(=O)NCC(=O)O (assay: purified protein, by the assay type). Details: other: substrate 0 to 400 μM, 50 nM cathepsin B; 37.0 °C.

| Compound | Km |
| --- | --- |
| cathepsin B (Homo sapiens) | 270 ± 34 µM |

These compounds were tested against cathepsin B (Homo sapiens, UniProt P07858) (assay: Cathepsin B assay by droplet ESI-MS). Details: 25 μM each.

| Compound | result in the 24-compound pilot screen |
| --- | --- |
| CC(C)C[C@H](NC(=O)[C@H]1O[C@@H]1C(=O)O)C(=O)NCCCCN=C(N)N (relative stereo) [E-64, L-trans-3-carboxyoxiran-2-carbonyl-L-leucylagmatine] | detected as inhibitors |
| CC(C)[C@H](NC(=O)[C@H](CCCNC(=N)N)NC(=O)N[C@@H](Cc1ccccc1)C(=O)O)C(=O)N[C@H](C=O)CCCNC(=N)N [antipain, [(S)-1-carboxy-2-phenylethyl]carbamoyl-L-arginyl-L-valyl-argininal] ({Phe-CO}-Arg-Val-Arg-aldehyde) | detected as inhibitors |
| CC(=O)N[C@@H](CC(C)C)C(=O)N[C@@H](CC(C)C)C(=O)N[C@H](C=O)CCCNC(=N)N [leupeptin, N-acetyl-L-leucyl-L-leucyl-L-argininal] | detected as inhibitors |
| CC(C)C[C@H](NC(=O)[C@@H](NC(=O)N[C@@H](Cc1ccccc1)C(=O)O)[C@@H]1CCN=C(N)N1)C(=O)N[C@H](C=O)Cc1ccccc1 [chymostatin, N-(Nα-carbonyl-[S,S]-α-(2-iminohexahydro-4-pyrimidyl)glycine-X-Phe-al)-Phe, X = Leu, Val, or Ile] | detected as inhibitors |

Same assay, conditions: read-out: reduction of reaction yield in the primary screen

| Compound | inhibition at 25 µM |
| --- | --- |
| CC(=O)Oc1cccc2c1C(=O)c1c(OC(C)=O)cc(C(=O)O)cc1C2=O [diacerein] | ≥ 40% |
| O=c1cc(-c2ccc(O)c(O)c2)oc2cc(O)cc(O)c12 [Luteolin, luteolin] | ≥ 40% |
| C=C(CC)C(=O)c1ccc(OCC(=O)O)c(Cl)c1Cl [ethacrynic acid] | ≥ 40% |
| [H]/N=C(\N/C(=N/[H])NCCCCCCNC(=N)NC(=N)Nc1ccc(Cl)cc1)Nc1ccc(Cl)cc1 [Chlorhexidine, chlorhexidine] | ≥ 40% |
| Oc1c(Cl)cc(Cl)c(Cl)c1Cc1c(O)c(Cl)cc(Cl)c1Cl [hexachlorophene] | ≥ 40% |
| O=C1c2c(O)cccc2Cc2cccc(O)c21 [anthralin] | ≥ 40% |
| CSc1nc2cc(Cl)c(Oc3cccc(Cl)c3Cl)cc2[nH]1 [Triclabendazole, triclabendazole] | ≥ 40% |
| CCN(CC)C(=S)SSC(=S)N(CC)CC [disulfiram] | ≥ 40% |
| Oc1cc(Cl)ccc1Oc1ccc(Cl)cc1Cl [triclosan] | ≥ 40% |
| O=C(c1ccc(OCCN2CCCCC2)cc1)c1c(-c2ccc(O)cc2)sc2cc(O)ccc12 [raloxifene] | ≥ 40% |
